The test system of assay [1] is MOG-specific hybridoma T cell clones. Put plainly: Antigen processing independent presentation: peptides presented by live or p-formaldehyde fixed Mgar cells to T cell hybridoma clones, IL-2 production. To be noted: FIG. 1; for identification as apitope: detailed study, overlapping peptides in region 25-60 displaced by one amino acid. Type of assay: cell-based, mice. An excerpt:
A panel of 15-mer overlapping peptides spanning rhMOGED was synthesized using standard F-moc chemistry. […]
MOG-specific hybridoma T cell clones were generated by immunisation of DR2+ mice. DR2+ mice were immunised with either a pool of MOG overlapping peptides or rhMOGED in complete Freunds adjuvant (CFA). After 10 days, the spleen and draining lymph nodes were removed, CD4+ T cells were purified and restimulated with antigen/CFA in vitro. A week later, T cells were restimulated in vitro with antigen to increase the number of activated antigen-specific cells.
After 3 days, activated T cells were fused with the thymoma cell line BW 5147. Hybridoma clones were then selected using HAT selection medium and screened for peptide specificity by IL-2 ELISA.
Live or p-formaldehyde fixed Mgar (HLA-DR2+ve) cells were incubated with peptides in serum or in serum alone, together with T cells for 48 hours. The T cell proliferative response was measured by IL-2 production.

Assay [2] has as its target T1, I-A^S (Mus musculus, UniProt P06345+P14437).
T1 sequence (P14437 1-233): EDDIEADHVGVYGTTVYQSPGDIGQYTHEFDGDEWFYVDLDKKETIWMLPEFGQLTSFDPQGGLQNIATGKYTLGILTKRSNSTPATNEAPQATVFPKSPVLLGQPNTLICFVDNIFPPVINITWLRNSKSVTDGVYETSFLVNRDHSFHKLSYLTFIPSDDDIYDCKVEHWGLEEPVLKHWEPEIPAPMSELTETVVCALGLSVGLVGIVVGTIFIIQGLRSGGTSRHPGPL
T1 sequence (P06345 28-263): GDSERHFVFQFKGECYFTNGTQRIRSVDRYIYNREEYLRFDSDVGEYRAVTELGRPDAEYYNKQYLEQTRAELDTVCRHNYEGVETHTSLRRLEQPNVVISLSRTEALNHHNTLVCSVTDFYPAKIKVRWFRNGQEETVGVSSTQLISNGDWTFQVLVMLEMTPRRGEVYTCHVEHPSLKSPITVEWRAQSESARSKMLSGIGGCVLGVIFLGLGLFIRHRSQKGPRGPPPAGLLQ
As to conditions: cited from earlier work.

The conditions of assay [3]: administered in solution; Anderton and Wraith (1998); cited from earlier work.
Assay [4] has as its system DR2 transgenic mice. Put plainly: MOG-induced EAE model. Type of assay: in vivo. To be noted: for Incidence (EAE) / Mean day of onset (EAE): Pertussis toxin day 0 and 2. The procedure: (§1) To test the capacity of ROK5 to prevent MOG-induced EAE in HLA-DR2 transgenic mice, the disease model was established in this strain of mice. To induce the disease, the encephalitogenic MOG peptide, mouse MOG 35-55 (mMOG35-55) was used. Then, ROK5 was tested in EAE prevention experiments as follows:
Two groups of DR2 transgenic mice were setup, at day zero, animals (n=7) in group “100 μg” received 100 μg mMOG35-55 in Complete Freund's Adjuvant (CFA) (100 μl, s.c., base of the tail injection), animals (n=8) in group “200 μg” received 200 μg mMOG35-55 in CFA. At day zero and day2, all animals received an injection of Pertussis toxin (200 ng in PBS, i.p.). Every day, clinical EAE was scored and animal body weight measured.

In assay [5] the test system is HLA-DR2 transgenic mice. Put plainly: ROK5 EAE prevention, second experiment (5 pre-treatments). To be noted: pretreated 5 times, 3 days apart, 100 μg s.c. flank; EAE by 200 μg mMOG35-55; FIG. 7. It counts as in vivo. The procedure:
as §1
Experiment 2: with 5 ROK5 dose pre-treatments, followed by immunisation with mMOG35-55.
(§2) In each experiment, 10 mice were used per group.
A second experiment was performed where animals were pretreated 5 times (3 days apart) with either human ROK5 or PBS, 100 μg in 100 μl in CFA (s.c. injection in the flank), then all animals were immunised with 200 μg mMOG35-55 in CFA (s.c. injection at the base of the tail) and with 200 ng Pertussis toxin (200 ng in PBS, i.p.) at day zero and day 2. Every day, clinical EAE was scored.

The test system of assay [6] is HLA-DR2 transgenic mice. As to the kind of experiment: ROK5 EAE prevention, first experiment (3 pre-treatments). Type of assay: in vivo. To be noted: pretreated 3 times, FIG. 6; for severity of the disease induced by MOG (clinical EAE score): 3 days apart, 100 μg s.c. flank, EAE by 200 μg mMOG35-55. How it is done:
as §1
Experiment 1: with 3 ROK5 dose pre-treatments, followed by immunisation with mMOG35-55.
as §2
A first experiment was performed where animals were pretreated 3 times (3 days apart) with either mouse ROK5, human ROK5 or PBS, 100 μg in 100 μl in CFA (s.c. injection in the flank), then all animals were immunised with 200 μg mMOG35-55 in CFA (s.c. injection at the base of the tail) and with 200 ng Pertussis toxin (200 ng in PBS, i.p.) at day zero and day 2.
Every day, clinical EAE was scored and animal body weight measured.

Assay [7] relates to splenocytes. Put plainly: Cytokine profiles of splenocyte supernatants after in vivo ROK5 pre-treatment, MOG35-55 immunisation and in vitro recall. Details: species or system mice. As to conditions: ROK5 pretreatment vs PBS; FIG. 3. The procedure:
(§3) HLA-DR2 transgenic mice were immunised with either 100 μg ROK5 (MOG 41-55), 100 μg MOG 35-55 or PBS on days −8, −4 and −2. On day 0, mice were challenged with 100 μg MOG 35-55 by injection in the tail base in combination with CFA.
The effect of ROK5 pre-treatment on various cytokine profiles was also investigated.

Assay [8] deals with HLA-DR2 transgenic mice. Put plainly: Ex vivo tolerance assay: recall proliferation with MOG 35-55 after peptide pre-treatment and MOG 35-55/CFA challenge. As to conditions: 100 μg on days -8, -4 and -2; challenge 100 μg MOG 35-55 in CFA day 0; harvest day 10; FIG. 2. How it is done: as §3
On day 10, splenocytes and draining lymph nodes were harvested and their respective cell populations isolated and a recall proliferation assay was set up with MOG 35-55. Cells from individual mice were treated separately and data is plotted separately in FIG. 2. For the recall response cells were treated ex vivo with a dose range of MOG35-55 (100, 10, 1, 0.1, 0.01, 0 μg) and proliferation via ^3H-thymidine incorporation determined. Stimulation index (compared to proliferation with no antigen) was calculated for each condition.

Setting [9] is: 100 μg mMOG35-55 in CFA s.c. base of tail, n=7.
[10] abbreviates: 200 μg mMOG35-55 in CFA s.c. base of tail, n=8.

Regarding “FSRVVHLYRNGKDQD (listed as Homo sapiens) [MOG 44-58, MOG peptide 44-58, apitope]”, in assay [1], the identification as apitope entry is reported as “identified as apitopes”.
With “MBP [89-101]: myelin basic protein peptide 89-101, immunodominant antigen, not tolerogenic (PHLIRLFSRDAPG; UniProt P04370 89-101, looked up, fragment)”, in assay [2], the “affinity of binding to I-A^S” value was “relatively high affinity”. Further, the induction of tolerance result in assay [3] was “ineffective at inducing tolerance”.
With “MEVGWYRSPFSRVVHLYRNGK (listed as Mus musculus) [mMOG35-55, encephalitogenic MOG peptide used to induce EAE]”, in assay [4] (setting [9]), the “Incidence (EAE)” value is on record as 4/7 and the “Mean day of onset (EAE)” value was determined as 12.25 days. Moreover, in assay [4] (setting [10]), the “Incidence (EAE)” value was 7/8 and the “Mean day of onset (EAE)” value was 12 days. In addition, in assay [4] (both doses (100 μg and 200 μg), FIGS. 5A, 5B), the “induction of EAE” value is recorded as “can induce EAE with a good incidence”.
As for “PFSRVVHLYRNGKDQ (listed as Homo sapiens) [MOG 43-57, MOG peptide 43-57, apitope]”, the identification as apitope entry in assay [1] is recorded as “identified as apitopes”.
Consider “RPPFSRVVHLYRNGK (listed as Homo sapiens) [ROK5, human MOG peptide 41-55, apitope]”, for which, in assay [5], the “peak of disease burden (timing)” value is recorded as “caused a delay in the peak of disease burden” and the “severity of disease (clinical EAE score)” value was “reduced the severity of disease”. In assay [6] (100 μg), the “efficiency of human ROK5 compared with mouse ROK5 in reducing EAE severity” value is given as “more efficient”. Further, the “severity of the disease induced by MOG (clinical EAE score)” value in assay [6] is “can reduce the severity of the disease”. In assay [7], the “production of GM-CSF by splenocytes” value is given as “clearly affected”, the “production of IFNγ by splenocytes” value is “clearly affected”, the “production of IL6 by splenocytes” value is given as “clearly affected” and the “production of IL-2 by splenocytes” value is given as “clearly affected”. In addition, the “immune response to challenge with MOG 35-55 (recall proliferation, stimulation index)” value in assay [8] is on record as “able to suppress the immune response”. Further, the “presentation by fixed APC to T cells without further processing (apitope)” value in assay [1] (15-mer peptides displaced by 5aa, fixed APC) is recorded as “could be presented by fixed APC to T cells without further processing”. Moreover, the identification as apitope entry in assay [1] was “identified as apitopes”.
As for “RSPFSRVVHLYRNGK (listed as Mus musculus) [mouse ROK5, mouse MOG 41-55, serine in position 42]”, the “severity of the disease induced by MOG (clinical EAE score)” value in assay [6] was “can reduce the severity of the disease”.
As for “SRVVHLYRNGKDQDG (listed as Homo sapiens) [MOG 45-59, MOG peptide 45-59, apitope]”, the identification as apitope entry in assay [1] was “identified as apitopes”.

Values taken from patent publication US10377800B2, “Myelin oligodendrocyte glycoprotein (MOG) peptide” (APITOPE TECHNOLOGY (BRISTOL) LIMITED, priority 2013, dated 2019).
